Assay results as given in the NIST ThermoML archive (doi:10.1016/j.jct.2015.01.006).

Test: mn = molality of the nth substance listed, in mol/kg
Details: 298.15 K, 100 kPa, Liquid, Vibrating tube method

[O]=[Re](=[O])(=[O])[OH] [perrhenic acid] + O
Details | mass density [kg/m3]
m1 = 0.15 | 1027.57
m1 = 0.31 | 1057.54
m1 = 0.46 | 1087.27
m1 = 0.6 | 1115.28
m1 = 0.75 | 1143.92
m1 = 0.89 | 1169.78
m1 = 1.03 | 1195.77
m1 = 1.17 | 1220.36
m1 = 1.31 | 1245.59
m1 = 1.45 | 1270.29
m1 = 1.58 | 1292.96
m1 = 1.71 | 1316
m1 = 1.93 | 1361.24
m1 = 2.38 | 1429.34
m1 = 3.33 | 1584.96
m1 = 3.78 | 1649.71
m1 = 4.08 | 1693.28
m1 = 4.29 | 1716.22
m1 = 4.63 | 1782.41
m1 = 4.72 | 1791.73
m1 = 4.96 | 1821.44
m1 = 5.23 | 1856.73
m1 = 5.45 | 1877.16
m1 = 5.66 | 1910.98
m1 = 5.92 | 1933.4
m1 = 6.06 | 1957.44
m1 = 6.26 | 1978.54
m1 = 6.5 | 2025.89
m1 = 6.8 | 2054.75
m1 = 7.05 | 2069.04
m1 = 7.13 | 2085.82
m1 = 7.42 | 2107.74
m1 = 7.44 | 2117.26
m1 = 7.65 | 2134.62
m1 = 7.86 | 2153.7
m1 = 7.95 | 2166.62
m1 = 8.2 | 2192.45
m1 = 11.82 | 2516.75
